The source of these data is PubChem BioAssay AID1259407 (Chemical Carcinogenesis Research Information System (CCRIS), 2018).

For this series, the system named is CCRIS mutagenicity, Ames/micronucleus/aberration tests. In words: CCRIS mutagenicity studies.
[1] abbreviates: Test System: AMES SALMONELLA TYPHIMURIUM, Strain/Indicator: TA98, Metabolic Activation: NONE, Method: STANDARD PLATE.
Where [2] appears, read: Test System: AMES SALMONELLA TYPHIMURIUM, Strain/Indicator: TA98, Metabolic Activation: RAT, LIVER, S-9, AROCLOR 1254, Method: STANDARD PLATE.
[3] abbreviates: Test System: AMES SALMONELLA TYPHIMURIUM, Strain/Indicator: TA100, Metabolic Activation: NONE, Method: STANDARD PLATE.
[4] abbreviates: Test System: AMES SALMONELLA TYPHIMURIUM, Strain/Indicator: TA100, Metabolic Activation: RAT, LIVER, S-9, AROCLOR 1254, Method: STANDARD PLATE.
Where [5] appears, read: Test System: AMES SALMONELLA TYPHIMURIUM, Strain/Indicator: TA1535, Metabolic Activation: NONE, Method: STANDARD PLATE.
Setting [6] is: Test System: AMES SALMONELLA TYPHIMURIUM, Strain/Indicator: TA1535, Metabolic Activation: RAT, LIVER, S-9, AROCLOR 1254, Method: STANDARD PLATE.
Setting [7] is: Test System: AMES SALMONELLA TYPHIMURIUM, Strain/Indicator: TA1537, Metabolic Activation: NONE, Method: STANDARD PLATE.
Where [8] appears, read: Test System: AMES SALMONELLA TYPHIMURIUM, Strain/Indicator: TA1537, Metabolic Activation: RAT, LIVER, S-9, AROCLOR 1254, Method: STANDARD PLATE.
[9] abbreviates: Test System: AMES SALMONELLA TYPHIMURIUM, Strain/Indicator: TA1538, Metabolic Activation: NONE, Method: STANDARD PLATE.
The mark [10] stands for this setting: Test System: AMES SALMONELLA TYPHIMURIUM, Strain/Indicator: TA1538, Metabolic Activation: RAT, LIVER, S-9, AROCLOR 1254, Method: STANDARD PLATE.

Each structure is given as a SMILES string. Activity calls are given as the source filed them. How the calls were made is not given here.

As to `N#Cc1cc([N+](=O)[O-])ccc1N=Nc1ccc(N(CCO)CCO)cc1`, the mutagenic call under setting [1] was “active; positive”; the mutagenic call under setting [2] is “active; positive”; the mutagenic call under setting [3] is “active; positive”; the mutagenic call under setting [4] is “active; positive”; the mutagenic call under setting [5] was “inactive; negative”; the mutagenic call under setting [6] is “inactive; negative”. Besides, the mutagenic call under setting [7] was “active; positive”; the mutagenic call under setting [8] is “active; positive”; the mutagenic call under setting [9] was “active; positive”; the mutagenic call under setting [10] was “active; positive”; the mutagenic call (Test System: CHINESE HAMSTER V-79, Strain/Indicator: V-79 (HGPRT)/6-THIOGUANINE, Metabolic Activation: RAT, LIVER, S-9, AROCLOR 1254) was “inactive; negative”; the mutagenic call (Test System: CHINESE HAMSTER V-79, Strain/Indicator: V-79/6-THIOGUANINE, Metabolic Activation: NONE) is “inactive; negative”. For the setting “Test System: UDS RAT HEPATOCYTES, Strain/Indicator: THY INCORP, Metabolic Activation: NONE, Method: AUTORADIOGRAPHY”, the mutagenic call is “inactive; negative”.

For the compound `C#CCOS(=O)(=O)c1ccc(C)cc1`, the mutagenic call is “inactive; negative” under setting [3] and “active; positive” (Test System: AMES SALMONELLA TYPHIMURIUM, Strain/Indicator: TA100, Metabolic Activation: RAT, LIVER, S-9, Method: STANDARD PLATE).

With `CN(OC(=O)c1ccccc1)c1ccc(N=Nc2ccccc2)cc1`, the mutagenic call was “active; positive” (Test System: AMES SALMONELLA TYPHIMURIUM, Strain/Indicator: TA98, Metabolic Activation: RAT, LIVER, S-9, KC500 OR PHENOBARBITAL, Method: LIQUID SUSPENSION) and “active; positive” (Test System: AMES SALMONELLA TYPHIMURIUM, Strain/Indicator: TA100, Metabolic Activation: RAT, LIVER, S-9, KC500 OR PHENOBARBITAL, Method: LIQUID SUSPENSION).

Consider `CC(=O)Nc1cc2c(cc1[N+](=O)[O-])[nH]c1ccccc12`, for which the mutagenic call is, setting by setting: under setting [1], “active; positive”; (Test System: AMES SALMONELLA TYPHIMURIUM, Strain/Indicator: TA98, Metabolic Activation: RAT, LIVER, S-9, PHENOBARBITAL, Method: STANDARD PLATE) “active; positive”; under setting [3], “inactive; negative”; (Test System: AMES SALMONELLA TYPHIMURIUM, Strain/Indicator: TA100, Metabolic Activation: RAT, LIVER, S-9, PHENOBARBITAL, Method: STANDARD PLATE) “inactive; negative”; under setting [7], “inactive; negative”; (Test System: AMES SALMONELLA TYPHIMURIUM, Strain/Indicator: TA1537, Metabolic Activation: RAT, LIVER, S-9, PHENOBARBITAL, Method: STANDARD PLATE) “inactive; negative”. Further, the mutagenic call was “active; positive” under setting [9]; “active; positive” (Test System: AMES SALMONELLA TYPHIMURIUM, Strain/Indicator: TA1538, Metabolic Activation: RAT, LIVER, S-9, PHENOBARBITAL, Method: STANDARD PLATE); “inactive; negative” (Test System: AMES SALMONELLA TYPHIMURIUM, Strain/Indicator: TA1977, Metabolic Activation: NONE, Method: STANDARD PLATE); “inactive; negative” (Test System: AMES SALMONELLA TYPHIMURIUM, Strain/Indicator: TA1977, Metabolic Activation: RAT, LIVER, S-9, PHENOBARBITAL, Method: STANDARD PLATE).

As to `O=PO.O=PO.[Mn+2]`, the mutagenic call is “inactive; negative” under setting [1]; “inactive; negative” under setting [2]; “inactive; negative” under setting [3]; “inactive; negative” under setting [4]; “inactive; negative” under setting [5]; “inactive; negative” under setting [6]. Also, the mutagenic call under setting [7] was “inactive; negative”; the mutagenic call under setting [8] is “inactive; negative”; the mutagenic call under setting [9] was “inactive; negative”; the mutagenic call under setting [10] is “inactive; negative”; the mutagenic call (Test System: E. COLI, Strain/Indicator: WP2, Metabolic Activation: NONE, Method: STANDARD PLATE) was “inactive; negative”; the mutagenic call (Test System: E. COLI, Strain/Indicator: WP2, Metabolic Activation: RAT, LIVER, S-9, AROCLOR 1254, Method: STANDARD PLATE) was “inactive; negative”.

As for `c1ccc2c(OCC3CO3)nsc2c1` (centres undefined), under setting [3], the mutagenic call is “active; positive”.

As to `O=C(/C=C/c1ccccc1)c1ccc([N+](=O)[O-])cc1`, the mutagenic call under setting [3] is “inactive; negative” and the mutagenic call under setting [4] was “inactive; negative”.

For the compound `COC(=O)c1ccccc1N`, the mutagenic call is “inactive; negative” (Test System: AMES SALMONELLA TYPHIMURIUM, Strain/Indicator: TA97, Metabolic Activation: NONE, Method: PREINCUBATION); “inactive; negative” (Test System: AMES SALMONELLA TYPHIMURIUM, Strain/Indicator: TA97, Metabolic Activation: RAT, LIVER, S-9, AROCLOR 1254, Method: PREINCUBATION); “inactive; negative” (Test System: AMES SALMONELLA TYPHIMURIUM, Strain/Indicator: TA98, Metabolic Activation: NONE, Method: PREINCUBATION); “inactive; negative” (Test System: AMES SALMONELLA TYPHIMURIUM, Strain/Indicator: TA98, Metabolic Activation: S-9, Method: PREINCUBATION); “inactive; negative” (Test System: AMES SALMONELLA TYPHIMURIUM, Strain/Indicator: TA100, Metabolic Activation: NONE, Method: PREINCUBATION); “inactive; negative” (Test System: AMES SALMONELLA TYPHIMURIUM, Strain/Indicator: TA100, Metabolic Activation: S-9, Method: PREINCUBATION). For the same compound, the mutagenic call is “inactive; negative” (Test System: AMES SALMONELLA TYPHIMURIUM, Strain/Indicator: TA102, Metabolic Activation: NONE, Method: PREINCUBATION); “inactive; negative” (Test System: AMES SALMONELLA TYPHIMURIUM, Strain/Indicator: TA102, Metabolic Activation: RAT, LIVER, S-9, AROCLOR 1254, Method: PREINCUBATION); “inactive; negative” (Test System: UDS RODENT HEPATOCYTES, Strain/Indicator: THY INCORP (NON-S-PHASE), Metabolic Activation: NONE, Method: AUTORADIOGRAPHY).

As for `C1CC2(CCO1)CO2`, the mutagenic call (Test System: AMES SALMONELLA TYPHIMURIUM, Strain/Indicator: TA100, Metabolic Activation: STANDARD PLATE) was “active; positive”.

On to `C=CCc1ccccc1N.[Cl-].[Cl-].[Pd+2]`, for which the mutagenic call runs as follows: (Test System: AMES SALMONELLA TYPHIMURIUM, Strain/Indicator: TA92, Metabolic Activation: NONE, Method: STANDARD PLATE) “inactive; negative”; under setting [1], “inactive; negative”; under setting [3], “active; positive”; (Test System: AMES SALMONELLA TYPHIMURIUM, Strain/Indicator: TA2410, Metabolic Activation: NONE, Method: STANDARD PLATE) “active; positive”.

For `c1ccc2c(COCC3CO3)cccc2c1` (centres undefined), the mutagenic call by setting is: under setting [3], “active; positive”; under setting [5], “active; positive”.

Turning to `CCC(=O)C(=O)CC`, the mutagenic call under setting [3] is “active; positive”.
